# Key:
# Rattus norvegicus [1] = assay: Potassium channel opening activity is expressed as area under curve (AUC), determined in spontaneously hypertensive rats (SHR's) after oral administration; type: functional
# Rattus norvegicus [2] = assay: Antihypertensive activity in spontaneously hypertensive rats (SHR''s) was evaluated after oral administration; ED50 mmHg; type: functional
# [3] = Rattus norvegicus, po, read-out: ED50
Structure (SMILES),ECAUC0.2 (Rattus norvegicus [1]),ED50 (Rattus norvegicus [2]; [3]),ED50 (Rattus norvegicus [2])
CN1N=C(O[C@@H]2c3cc(C#N)ccc3OC(C)(C)[C@@]2(C)O)[C@@H]2C[C@@H]2C1=O,0.021 µM,0.0023 mg/kg,–
CN1N=C(N[C@@H]2c3cc(C#N)ccc3OC(C)(C)[C@H]2O)[C@@H]2C[C@@H]2C1=O,–,0.0065 mg/kg,–
Cn1nc(O[C@@H]2c3cc(C#N)ccc3OC(C)(C)[C@H]2O)ccc1=O,0.16 µM,0.0064 mg/kg,–
CN1N=C(O[C@@H]2c3cc(C#N)ccc3OC(C)(C)[C@H]2O)C2C(C1=O)C2(C)C (mixture of isomers),–,> 0.1 mg/kg,–
CN1N=C(OC2c3ccc([N+](=O)[O-])cc3OC(C)(C)C2O)C2CC2C1=O (racemic),–,> 0.3 mg/kg,–
CN1N=C(OC2c3cc([N+](=O)[O-])ccc3OC(C)(C)C2O)C2CC2C1=O (racemic),–,0.049 mg/kg,–
CN1N=C(OC2c3cc(C#N)ccc3OC(C)(C)C2(C)O)C2CC2C1=O (racemic),–,0.0042 mg/kg,–
Cn1nc(OC2c3cc(C#N)ccc3OC(C)(C)C2O)ccc1=O (racemic),0.25 µM,0.023 mg/kg,–
Cn1nc(OC2c3cc(C#N)ccc3OC(C)(C)C2O)c2c(c1=O)CCC2 (racemic),–,0.86 mg/kg,–
CN1N=C(O[C@@H]2c3cc(C(F)(F)C(F)(F)F)ccc3OC(C)(C)[C@H]2O)[C@@H]2C[C@@H]2C1=O (racemic),–,0.047 mg/kg,–
Cn1nc(OC2c3cc(C#N)ccc3OC(C)(C)C2O)c2ccccc2c1=O (racemic),–,> 10 mg/kg,–
CC1(C)Oc2ccc(C#N)cc2C(N2CCCC2=O)C1O (racemic) [CROMAKALIM],2.8 µM,0.31 mg/kg,–
CN1N=C(OC2c3cc(C#N)ccc3OC(C)(C)C2O)C2CC2C1=O (racemic; form 1),–,–,>1 mg/kg
CN1N=C(OC2c3cc(C#N)ccc3OC(C)(C)C2O)C2CC2C1=O (racemic; form 2),0.39 µM,–,0.047 mg/kg
"CN1N=C(O[C@@H]2c3cc(C#N)ccc3OC(C)(C)[C@H]2O)C2CC2C1=O (single isomer, unassigned; (-))",0.18 µM,0.029 mg/kg,–
CC1(C)Oc2ccc(C#N)cc2[C@@H](N2CCCC2=O)[C@@H]1O [LEVCROMAKALIM],1.6 µM,0.14 mg/kg,–

# Source: ChEMBL document CHEMBL1129842, “ATP-sensitive potassium channel openers: Synthesis and antihypertensive activity of 4-bicyclyloxybenzopyrans” (1997)
